Results from US11740249B2, “Recognition of cellular target binding by a bioactive agent using intracellular bioluminescence resonance energy transfer” (Promega Corporation, priority 2012, dated 2023).

Legend:
[1] = molecular target: T1, NANOLUC-HDAC6 fusion protein (Homo sapiens, UniProt Q9UBN7); experiment: Intracellular BRET tracer binding, NANOLUC-HDAC6 in HEK293 cells (Example 1); conditions: live HEK293 cells, compared to SAHA-TMR (PBI-4967)
T1 construct: expressed in transfected cells; host or cells: HEK293
Procedure: In this example, conjugates of suberoylanilide hydroxamic acid (SAHA), an inhibitor of histone deacetylase 6 (HDAC6), and a PBI dye (SAHA-TOM (PBI-4968); See FIGS. 8A-B) or standard dye (SAHA-TAMRA (PBI-4967); See FIGS. 8A-B) were utilized in an intracellular BRET assay using a NANOLUC-HDAC fusion protein (SEQ ID NO: 3).
HEK293 cells were transfected using FuGene HD (Promega Corp.) with plasmid DNA encoding a NANOLUC-HDAC6 fusion protein. NANOLUC-HDAC6 DNA was diluted 1:1000 with a promoterless carrier DNA (pGEM3Z) to yield a final concentration of 50 ng/well total DNA in 96-well plate format (at a seeding density of 20,000 cells/well). Twenty-four hours post-transfection, cells were then incubated with serially-diluted tracer in the presence or absence of a molar excess of unlabeled SAHA (as a specificity control). Following equilibration with the drug tracers, furimazine (a coelenterazine derivative substrate for NANOLUC; Promega Corp.) was added at a concentration of 20 uM, and BRET was quantified on a Varioskan luminometer. The specific BRET signal was calculated by subtracting the non-specific signal (in the presence of unlabeled SAHA) from the signal generated from the SAHA tracer alone.

[2] = molecular target: T2, NANOLUC-HDAC6 (Homo sapiens, UniProt Q9UBN7); experiment: BRET compound panel screen by competitive displacement of SAHA-TOM, NANOLUC-HDAC6 in HEK293 cells (Example 15); type: binding; conditions: 1 uM SAHA-TOM (PBI-4968), 2 h
T2 construct: expressed in transfected cells; host or cells: HEK293
T2 sequence (Q9UBN7 with tags, fused parts or gaps): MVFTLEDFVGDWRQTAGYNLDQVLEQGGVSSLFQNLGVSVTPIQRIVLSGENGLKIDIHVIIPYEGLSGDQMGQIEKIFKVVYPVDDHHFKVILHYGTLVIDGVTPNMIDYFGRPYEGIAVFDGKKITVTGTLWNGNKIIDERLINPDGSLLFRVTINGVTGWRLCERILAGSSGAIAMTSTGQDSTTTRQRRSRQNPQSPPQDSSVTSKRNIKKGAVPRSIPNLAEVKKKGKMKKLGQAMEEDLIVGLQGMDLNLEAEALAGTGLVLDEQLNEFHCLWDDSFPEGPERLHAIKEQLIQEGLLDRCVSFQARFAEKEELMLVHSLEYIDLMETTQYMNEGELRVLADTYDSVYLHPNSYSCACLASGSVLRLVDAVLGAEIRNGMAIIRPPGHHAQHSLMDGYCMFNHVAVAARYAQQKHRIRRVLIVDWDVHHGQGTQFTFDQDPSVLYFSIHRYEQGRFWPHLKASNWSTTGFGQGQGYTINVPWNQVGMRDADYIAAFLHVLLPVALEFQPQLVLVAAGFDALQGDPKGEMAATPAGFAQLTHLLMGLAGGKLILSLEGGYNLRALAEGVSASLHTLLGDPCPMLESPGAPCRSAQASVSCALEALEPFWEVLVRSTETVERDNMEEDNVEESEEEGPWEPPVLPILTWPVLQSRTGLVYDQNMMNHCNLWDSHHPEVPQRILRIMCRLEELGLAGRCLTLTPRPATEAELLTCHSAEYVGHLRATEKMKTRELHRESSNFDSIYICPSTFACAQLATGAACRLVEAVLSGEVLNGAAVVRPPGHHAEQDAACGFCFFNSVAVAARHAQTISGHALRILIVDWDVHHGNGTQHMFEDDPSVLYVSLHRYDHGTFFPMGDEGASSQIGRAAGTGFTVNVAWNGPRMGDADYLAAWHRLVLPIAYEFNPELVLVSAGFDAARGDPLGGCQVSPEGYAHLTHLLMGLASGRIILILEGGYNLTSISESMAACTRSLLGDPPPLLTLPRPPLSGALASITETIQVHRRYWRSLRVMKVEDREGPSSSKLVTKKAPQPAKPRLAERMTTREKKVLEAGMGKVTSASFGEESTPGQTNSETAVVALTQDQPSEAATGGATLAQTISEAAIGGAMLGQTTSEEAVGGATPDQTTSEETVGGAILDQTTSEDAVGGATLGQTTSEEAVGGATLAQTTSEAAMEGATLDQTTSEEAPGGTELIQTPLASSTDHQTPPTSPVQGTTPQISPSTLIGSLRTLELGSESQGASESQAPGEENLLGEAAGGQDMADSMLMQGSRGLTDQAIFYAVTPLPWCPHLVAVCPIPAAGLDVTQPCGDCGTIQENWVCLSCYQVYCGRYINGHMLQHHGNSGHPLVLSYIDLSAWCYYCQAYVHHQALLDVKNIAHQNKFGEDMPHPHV

T1 sequence (Q9UBN7 with tags, fused parts or gaps): as above

SMILES | specific BRET signal ([1]; NANOLUC-HDAC6 DNA diluted 1:1000) | EC50 value for binding within living cells [1] | binding efficiency to HDAC6 (competitive displacement of tracer) [2]
O=C(CCCCCCC(=O)Nc1ccc(CNC(=O)c2ccc(C(=O)O)c(C3=c4cc5c6c(c4Oc4c3cc3c7c4CCCN7CCCC3)CCC[N+]=6CCCC5)c2)cc1)NO [PBI-4968] | superior, specific BRET signal | left-shifted | –
O=C(CCCCCCC(=O)Nc1ccccc1)NO [SAHA, suberoylanilide hydroxamic acid] | – | – | high binding efficiency
